Results reported in US11530217B1, “Antitubercular compounds” (priority 2022, dated 2022).
Values after ≈ are worked out from the molar mass of the structure shown.

tested on: rifampicin and isoniazid-resistant MTB strain (MDR-MTB); assay: microbe, parasite or virus in culture; format: cell-based; settings: Mycobacterium tuberculosis, 192 h, read-out: MIC (μg/mL) MDR-MTB

| SMILES | MIC [µg/mL] |
| --- | --- |
| CCOC(=O)c1cc(C(=O)c2cc(C(F)(F)F)cc(C(F)(F)F)c2)n2cc(C)cc(C)c12 [Compound 5i, Ethyl 3-(3,5-bis(trifluoromethyl)benzoyl)-6,8-dimethylindolizine-1-carboxylate] | 16 (≈ 35 µM) |
| CCOC(=O)c1cc(C(=O)c2ccccc2[N+](=O)[O-])n2cc(C)cc(C)c12 [Compound 5h, Ethyl 6,8-dimethyl-3-(2-nitrobenzoyl)indolizine-1-carboxylate] | 4 (≈ 10.9 µM) |
| COC(=O)c1c(C(=O)OC)c2c(C)cc(C)cn2c1C(=O)c1ccc(C#N)cc1 [Compound 5l, Dimethyl 3-(4-cyanobenzoyl)-6,8-dimethylindolizine-1,2-dicarboxylate] | 8 (≈ 20.5 µM) |
| COC(=O)c1c(C(=O)OC)c2c(C)cc(C)cn2c1C(=O)c1ccc(OC)cc1 [Compound 5b, Dimethyl 3-(4-methoxybenzoyl)-6,8-dimethylindolizine-1,2-dicarboxylate] | 64 (≈ 162 µM) |
| CCOC(=O)c1cc(C(=O)c2ccc(C)cc2)n2cc(C)cc(C)c12 [Compound 5k, Ethyl 6,8-dimethyl-3-(4-methylbenzoyl)indolizine-1-carboxylate] | 4 (≈ 11.9 µM) |
| CCOC(=O)c1cc(C(=O)c2ccc(C#N)cc2)n2cc(C)cc(C)c12 [Compound 5j, Ethyl 3-(4-cyanobenzoyl)-6,8-dimethylindolizine-1-carboxylate] | 4 (≈ 11.5 µM) |
| CCOC(=O)c1cc(C(=O)c2ccc(F)cc2)n2cc(C)cc(C)c12 [Compound 5g, Ethyl 3-(4-fluorobenzoyl)-6,8-dimethylindolizine-1-carboxylate] | 4 (≈ 11.8 µM) |
| COC(=O)c1c(C(=O)OC)c2c(C)cc(C)cn2c1C(=O)c1ccc(Cl)cc1 [Compound 5d, Dimethyl 3-(4-chlorobenzoyl)-6,8-dimethylindolizine-1,2-dicarboxylate] | 64 (≈ 160 µM) |
| COC(=O)c1c(C(=O)OC)c2c(C)cc(C)cn2c1C(=O)c1ccc(C)cc1 [Compound 5m, Dimethyl 6,8-dimethyl-3-(4-methylbenzoyl)indolizine-1,2-dicarboxylate] | 1 (≈ 2.64 µM) |
| CCOC(=O)c1cc(C(=O)c2ccc(Cl)cc2)n2cc(C)cc(C)c12 [Compound 5c, Ethyl 3-(4-chlorobenzoyl)-6,8-dimethylindolizine-1-carboxylate] | 1 (≈ 2.81 µM) |
